Like-named read-outs stand apart in the source and are kept apart here.
Legend:
aromatase = biological target: T1, aromatase (Rattus norvegicus, UniProt P22443); test: Aromatase inhibition in the rat ovarian microsome assay; format: biochemical; settings: substrate (androstenedione) concentration 0.1 μM; rat ovarian microsomes; read-out: EC50 (concentration of compound required to achieve 50% inhibition of aromatase activity)
T1 construct: ovarian microsomes are obtained from rats treated with pregnant mares serum gonadotropin; from tissue; host or cells: rat ovary microsomes (rats treated with pregnant mares serum gonadotropin)
T1 sequence (P22443 1-508): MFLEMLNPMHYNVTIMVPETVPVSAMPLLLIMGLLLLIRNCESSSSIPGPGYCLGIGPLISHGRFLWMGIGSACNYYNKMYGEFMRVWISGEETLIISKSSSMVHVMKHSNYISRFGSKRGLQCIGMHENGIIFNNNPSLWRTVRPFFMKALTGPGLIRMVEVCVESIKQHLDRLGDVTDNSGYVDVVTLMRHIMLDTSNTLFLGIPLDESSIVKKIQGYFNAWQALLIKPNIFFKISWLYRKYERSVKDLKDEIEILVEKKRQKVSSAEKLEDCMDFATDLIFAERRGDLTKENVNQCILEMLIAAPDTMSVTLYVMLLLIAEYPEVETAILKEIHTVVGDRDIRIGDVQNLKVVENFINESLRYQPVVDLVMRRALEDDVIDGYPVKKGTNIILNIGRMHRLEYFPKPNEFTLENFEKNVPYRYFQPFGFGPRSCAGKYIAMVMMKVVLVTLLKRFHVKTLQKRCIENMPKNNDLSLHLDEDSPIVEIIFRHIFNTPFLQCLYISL
Experimental: In this test system, ovarian microsomes are obtained from rats treated with pregnant mares serum gonadotropin. Test compounds are added to reaction vials containing 0.1 μM 4-androstene-3,17-dione, 100,000 dpm 1,2[^3 H]-androstenedione, the microsomes and a NADPH generating system. The concentrations of the inhibitors tested ranged between 5 and 10000 nM. […] Potency is determined based on the concentration of inhibitor in nM required to produce a 50% inhibition of enzyme activity (EC50) when the concentration of substrate (androstenedione) is 0.1 μM.

[1] = test system: Estrogen synthesis (aromatization); test: Estrogen Synthesis Inhibition in Rats; format: in vivo, immature female Wistar rats; settings: Rattus norvegicus, po, 168 h, gavage; for response vs control in vivo at 3 mg/kg: 3 mg/kg × 7 days; for response vs control in vivo at 10 mg/kg: 10 mg/kg × 7 days; for response vs control in vivo at 30 mg/kg: 30 mg/kg × 7 days;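 as to Uterine Wt. %: 100% equals the stimulated control's weight gain over the unstimulated control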
Experimental: By virtue of their ability to inhibit the enzyme aromatase, the compounds of this invention are able to inhibit the synthesis of estrogens in mammals, thereby making the compounds useful in the treatment of estrogen-dependent diseases, such as breast cancer.
Immature female Wistar rats (45-55 grams) were divided into control and test groups of 2-8 animals each. Test compounds were administered for seven days daily by gavage in corn oil. Control animals received corn oil without the test compound. Beginning on the fourth day of the test, all animals treated with the test compound and one half of the control animals were given a subcutaneous injection of 1.0 mg of testosterone propionate in corn oil. The remaining control animals received only an equivalent volume of corn oil. On the seventh day of the test, rats treated with testosterone propionate were injected subcutaneously with 100 μCi of [^3 H]-testosterone in 50 μl of saline-ethanol (3:1).
After two hours, the animals were killed by decapitation. Uteri were isolated, trimmed of extraneous connective tissue, and weighed. […] In the control animals treated with testosterone propionate, estrogens produced by aromatization stimulated the uterus resulting in an increase in weight.
Ovaries from rats treated with [^3 H]-testosterone were excised, cleaned of extraneous tissue, and homogenized in 2.5 ml of a 1.0 mM potassium phosphate buffer containing 3.0 mM MgCl2.6H2 O, 320 mM sucrose, and 0.25% Triton X-100 (polyethylene glycol p-isooctyl phenyl ether, Rohm and Haas) at pH 6.5. The ovarian steroids were extracted with 1.5 ml of 9:1 toluene/ethanol to which had been added 25 to 100 mcg each of unlabelled estradiol, estriol, and estrone, and approximately 1000 dpm of [^14 C]-estradiol. The samples were vortexed, centrifuged at 500×g for 10 minutes, and the organic phase was transferred to a conical vial. Two additional extractions were performed on the residue in the same way. The pooled organic extracts were evaporated for subsequent thin-layer chromatography.
Ovarian proteins were precipitated by the addition of 5.0 ml of ethanol to the remaining aqueous phase. After an overnight incubation at 4° C., the samples were centrifuged at 1500×g for 10 minutes. The supernatant was discarded and the pellet was dissolved in 0.3 N potassium hydroxide. Protein was determined according to the method of Bradford, Analytical Biochemistry, 72, 248 (1976).
The organic residue from each above extraction was redissolved in 9:1 dichloromethane/methanol. The solution of each sample was applied to separate silica gel thin layer chromatography plates which contained a fluorescent indicator. The plates were developed the first dimension with 160:38:1.5:0.5 dichloromethane/ethyl acetate/methanol/acetic acid to within 3 cm of the top of the plate. After air-drying, the plate was developed in the second dimension with 180:19:1 dichloromethane/methanol/ammonium hydroxide. The plate was air-dried and viewed under 254 nm UV light.
The visible spots were marked and the plates were sprayed with primulin (0.001% in 4:1 acetone/water) according to the method of Wright, J. Chromatography, 59, 220 (1971) which allowed for the identification of additional steroids under 365 nm UV light. The spots were scraped from the plate using a glass wool plugged Pasteur pipet attached to a vacuum line. The steroids were eluted directly into scintillation vials by the addition of 0.2 ml of dichloromethane followed by two washes each of 2.0 ml of methanol. The organic solvent was evaporated and 10.0 ml of scintillation fluid (Beckman Ready Solv-NA) was added to the vials. Samples were analyzed by liquid scintillation spectrometry and the corrections were made based on the recoveries of the [^14 C]-steroid.
In Table 2, values for uterine weight are expressed as the respective weights of drug treated (DT), unstimulated corn oil control (UC), and stimulated corn oil control (SC) according to the calculation %=100 (DT-UC)/(SC-UC). […]

[2] = test system: DMBA-induced mammary tumors; test: DMBA-induced Mammary Tumor Inhibition; format: in vivo, female Sprague-Dawley rats
Experimental: Mammary tumors were produced in female Sprague-Dawley rats which were 50-60 days old by the gavage administration of 20 mg of 7,12-dimethylbenz[a]anthracene (DMBA). About six weeks after DMBA administration, the mammary glands were palpated at weekly intervals for the appearance of tumors. Whenever one or more tumors appeared and were measurable in an animal, that animal was selected for experimentation. […] Each control and test group contained 5-8 animals. Each test compound was administered in corn oil once daily by gavage. Every experiment included a group of control rats having tumors and were given corn oil vehicle by gavage. […] The area of each tumor was calculated by multiplying the shortest and longest diameters of the tumor. The treatment and measurement of animals continued for 4-6 weeks at which time the final areas of the tumors were determined. For each compound (and control) at each dose level, the change in the mean tumor area was determined. The mean change was analyzed for its significance using Dunnett's t-test.

breast cancer = settings: Cancer Research, Vol. 42, Suppl 8 (1982); cited from earlier work
[3] = 100 (DT-UC)/(SC-UC), read-out: Uterine Wt. %
[4] = ovaries, percent of testosterone-treated controls, read-out: % steroid concentration, estradiol
[5] = ovaries, percent of testosterone-treated controls, read-out: % steroid concentration, estrone

| Structure (SMILES) | EC50 (aromatase) [nM] | response vs control in vivo at 3 mg/kg [1, 3] [%] | response vs control in vivo at 3 mg/kg [1, 4] [%] | response vs control in vivo at 3 mg/kg [1, 5] [%] | response vs control in vivo at 10 mg/kg [1, 3] [%] | response vs control in vivo at 10 mg/kg [1, 4] [%] | response vs control in vivo at 10 mg/kg [1, 5] [%] | response vs control in vivo at 30 mg/kg [1, 3] [%] | response vs control in vivo at 30 mg/kg [1, 4] [%] | response vs control in vivo at 30 mg/kg [1, 5] [%] | Final Tumor Area ± S.E. ([2]; Test I, 3 mg/kg daily by gavage, 4 weeks, control 741 ± 193) [mm^2] | Final Tumor Area ± S.E. ([2]; Test I, 10 mg/kg daily by gavage, 4 weeks, control 741 ± 193) [mm^2] | Final Tumor Area ± S.E. ([2]; Test I, 30 mg/kg daily by gavage, 4 weeks, control 741 ± 193) [mm^2] | Final Tumor Area ± S.E. ([2]; Test II, 10 mg/kg daily by gavage, 4 weeks, control 698 ± 78) [mm^2] | Final Tumor Area ± S.E. ([2]; Test II, 30 mg/kg daily by gavage, 4 weeks, control 698 ± 78) [mm^2] | Final Tumor Area ± S.E. ([2]; Test II, 50 mg/kg daily by gavage, 4 weeks, control 698 ± 78) [mm^2] | Final Tumor Area ± S.E. ([2]; Test III, 10 mg/kg daily by gavage, 6 weeks, control 2053 ± 778) [mm^2] | Final Tumor Area ± S.E. ([2]; Test III, 30 mg/kg daily by gavage, 6 weeks, control 2053 ± 778) [mm^2] | effect in treatment of breast cancer (breast cancer) |
| --- | --- | --- | --- | --- | --- | --- | --- | --- | --- | --- | --- | --- | --- | --- | --- | --- | --- | --- | --- |
| Clc1ccc(C2c3ccc(Cl)cc3-c3ncncc32)cc1 (stereo not shown) [Example 1, 8-chloro-5-(4-chlorophenyl)-5H-indeno[1,2-d]pyrimidine] | 24 | 50.2 | 31.5 | 31.5 | 37.3 | 17.2 | 31.4 | 20.6 | 23.6 | 118 | 162 ± 93 | 74 ± 45 | 6 ± 6 | – | – | – | – | – | – |
| Clc1ccc(C2c3ccccc3-c3ncncc32)cc1 (stereo not shown) [Example 2, 5-(4-chlorophenyl)-5H-indeno[1,2-d]pyrimidine] | 21 | 49.1 | 40.5 | 106 | – | – | – | 33.3 | 19.4 | 83.2 | – | – | – | 287 ± 94 | 814 ± 223 | 552 ± 177 | – | – | – |
| Fc1ccc(C2c3ccc(F)cc3-c3ncncc32)cc1 (stereo not shown) [Example 6, 8-fluoro-5-(4-fluorophenyl)-5H-indeno[1,2-d]pyrimidine] | 24 | 0.7 | 10.2 | 70.3 | – | – | – | 6.9 | 2.9 | 57.1 | – | – | – | – | – | – | 109 ± 62 | 393 ± 254 | – |
| CCC1(c2ccc(N)cc2)CCC(=O)NC1=O (stereo not shown) [aminoglutethimide] | – | – | – | – | – | – | – | – | – | – | – | – | – | – | – | – | – | – | beneficial effect in treatment of breast cancer |
| C[C@]12CCC(=O)C=C1CC[C@@H]1[C@@H]2CC[C@]2(C)OC(=O)CC[C@@H]12 [testololactone] | – | – | – | – | – | – | – | – | – | – | – | – | – | – | – | – | – | – | beneficial effect in treatment of breast cancer |

— patent US4769378A, “Indenopyrimidine aromatase inhibitors” (Eli Lilly and Company, priority 1986, dated 1988)
